Tests used:
[1] = test system: UCH-L5, UCH-L3, UCH-L1; experiment: HA-Ub-VS activity profiling in cell lysates, UCH-Ls; format: biochemical, human; settings: for HA-Ub-VS labeling of UCHL enzymes: 75 μM, 30 minutes preincubation
Protocol: HA-ubiquitin vinylsulfone (HA-Ub-VS) irreversibly labels DUBs by modifying the catalytic cysteine residue Inhibition of the DUB prevents HA-Ub-VS labeling and the band is. […] The interaction with UCHL1/3 is reversible.
Lysate labeling assay on untransfected cells (1.5 mg/mL) was run with the stated concentration of inhibitor (or 1% DMSO control) for between 19-60 mins. After this time HA-Ub-VS (1.5-0.7 μM) was added and incubated for 19 mins. After this time reaction mixture (9 μL) was removed and quenched in 2× (final concentration) reducing loading buffer. For recovery experiments, a lysate of 6 mg/mL was treated with saturating compound C14 (250 μM) and incubated for 40 mins. Afterward, the lysate was diluted to 0.6 mg/mL (final concentration of inhibitor 25 μM) in lysis buffer (final volume 100 μL), then HA-Ub-VS was added. Aliquots (15 μL) were removed at the stated time (5-119 mins) and immediately quenched in 2× (final concentration) reducing loading buffer. For all HA-Ub-VS experiments samples in loading buffer were heated only to 37° C. prior to loading on a gel. This assay is highly susceptible to concentration of lysate and HA-Ub-VS. Cell experiments were carried out as above with some modifications. For Cos-1 and MCF-7 cells, after trypsinization, media with compound was added to give a final concentration of compound equal to that used in the assay. Cell pellets were lysed on an ice/salt bath with a temperature of −5° C. and lysate was centrifuged for only 5 mins.
HA-Ub-VS is an irreversible inhibitor of DUBs that is widely used in activity profiling. If the DUB inhibitors react to form a thiocarbonylated enzyme as proposed (FIG. 29B), then HA-Ub-VS labeling will be blocked. Treatment of HEK 293T lysates with HA-Ub-VS produced the characteristic pattern of protein bands at 250, 150-100, 45, 38 and 36 kDa, generally ascribed to USP9x (292 kDa), USP19 (146 kDa), USP7/8 (128 and 127 kDa, respectively), USP28/15 (122 and 112 kDa, respectively), UCH-L5 (38 kDa), UCH-L3 (26 kDa) and UCH-L1 (25 kDa) as depicted in FIG. 31.
The effect of diphenylcarbonates on HA-Ub-VS labeling was assessed to investigate the selectivity of DUB inhibition. Lysates were preincubated with diphenyl carbonates (75 μM), then treated with HA-Ub-VS (FIG. 31A). […] These C17 and C22-sensitive DUBs are most likely USP9x, USP19, USP7/8 and UCHL5, based on molecular weight (FIGS. 31B and 38). The identity of USP7 was confirmed by immunoblotting (FIG. 38F). […] Similar behavior was observed on Cos-1 cell lysates (FIG. 38B).

[2] = test system: Bcr-Abl kinase; experiment: Bcr-Abl levels in K562 cells by immunoblotting; format: cell-based, human; settings: for levels of Bcr-Abl: 50 μM, 2 h
Protocol: K562 cells are from a myelogenous leukemia line that expresses Bcr-Abl kinase. A. K562 cells were treated with TU50 for 24 hours after which time the cells were treated with annexin V-FITC and propidium iodide. Cells were then analyzed by flow cytometry. Cells showing only annexin V-FITC were considered apoptotic whereas cells showing both annexin V-FITC and propidium iodide were considered necrotic. N=2. All points show a significant difference to the vehicle (DMSO) with p<0.05. […] All points show a significant difference to vehicle (DMSO) with p<0.02. C. Same as A, but the incubation period was 8 hours. N>2. All points show a significant difference to DMSO with p<0.02. D, K562 cells were treated with TU50 for 4 hours. Samples were analyzed by SDS-PAGE and immunoblotting with anti-Bcr-Abl antibody. E. Quantitation of blot in D. The signal for tubulin was used to normalize the Bcr-Abl signal. N=3.
FIG. 34 depicts data showing that diphenylcarbonates cause the accumulation of HMW-Ub and reduce the levels of Bcr-Abl in K562 cells. A. K562 cells were treated with diphenyl carbonates (50 μM) for 2 h and then assayed for the accumulation of K48-linked Ub. B. As in A, but Bcr-Abl was measured by immunoblotting with anti-Abl antibodies. C. K562 cells were treated with C17 (50 μM) in the presence and absence of bortezomib (6 μM) for 4 hours and Bcr-Abl was measured by immunblotting with anti-Abl antibodies. D. Quantitation of blot in C. Significance: DMSO relative to C17 and bortezomib p=0.002; DMSO relative to C17, p=0.03. E. K562 cells were treated with C15 for 4 hours then analyzed for SMAD4 monoubiquitination by western blot. F. Quantitation of blots in A. (N=3). See also FIG. 40.
FIG. 40 depicts data showing that diphenyl carbonates induce the degradation of Bcr-Abl kinase. A. K562 cells were treated with C17 for 24 h (1 dose) then analyzed for Bcr-Abl expression by western blot with anti-Abl antibody. B. Quantitation of blots in A normalized to actin. C. K562 cells were treated with C17 for 24 h then the amount of cells in G1 and apoptosis were recorded (N=3). D. K562 were treated with C15 for 4 h then analyzed for Bcr-Abl expression using western blot. E. Quantitation of Bcr-Abl from D normalized to tubulin (N=4). F. Same K562 lysates were separately analyzed for K63-linked ubiquitin. G. Quantitation of blots in F (N=4). Differences between all bars is significant p<0.01). H. K562 cells were treated with C15 for 24 h after which time cells were fixed in ethanol, treated with propodium iodide/RNAse then analyzed by FACS. Viability was calculated using forward and side scatter. I. Same experiment as H but red fluorescence was measured to determine DNA content
Transfected cells were harvested 1.5 days post transfection. […] Typically clarified lysate was analyzed.

Structure (SMILES) | HA-Ub-VS labeling of UCHL enzymes ([1]; HEK 293T lysates) | levels of Bcr-Abl [2] | inhibition of UCH-L1/3/5, dose response ([1]; below 50 μM) | Bcr-Abl, dose response ([2]; C15 4 h) | HA-Ub-VS labeling of UCH-Ls ([1]; HEK 293T lysates, preincubation with G5)
NCc1ccc(OC(=O)Oc2cccc3ccccc23)cc1 [Compound C18] | relatively little effect on the UCHL enzymes | caused a decrease in the levels of Bcr-Abl |  |  | 
NCc1ccc(OC(=O)Oc2ccc3ccccc3c2)cc1 [Compound C17] | relatively little effect on the UCHL enzymes | caused a decrease in the levels of Bcr-Abl | little inhibition of UCH-L1/3/5 was observed below 50 μM |  | 
NCc1ccc(OC(=O)Oc2ccc(Br)cc2)cc1 [Compound C15, 4-(aminomethyl)phenyl(4-bromophenyl)carbonate] | relatively little effect on the UCHL enzymes | caused a decrease in the levels of Bcr-Abl |  | dose dependent decrease in Bcr-Abl | 
O=C1/C(=C/c2ccc([N+](=O)[O-])cc2)CS(=O)(=O)C/C1=C\c1ccc([N+](=O)[O-])cc1 [Compound G5, reference compound] |  |  |  |  | UCH-L1 but not UCH-L3
NCc1ccc(OC(=O)Oc2ccc(Cl)cc2)cc1 [Compound C14, 4-(aminomethyl)phenyl(4-chlorophenol)carbonate] | relatively little effect on the UCHL enzymes | caused a decrease in the levels of Bcr-Abl |  |  | 

Reference: patent US20160090351A1, “INHIBITORS OF DEUBIQUITINATING PROTEASES” (BRANDEIS UNIVERSITY, priority 2013, published 2016)
